Consider two substances from patent publication US20040115792A1, “Yeast strain for testing the geno- and cytotoxicity of complex environmental contaminations” (priority 2000, published 2004).

The test system of data set [1] is Saccharomyces cerevisiae wild strain. Put plainly: Growth and fluorescence test in the presence of inhibitors, wild strain. Type of data set: cell-based. Particulars: 0.05 and 0.5 ng/ml mitomycin C, 0.01 and 0.1 ng/ml TPhT, 30° C., 8 hours.
Data set [2] concerns pdr5yor1snq2 triple-mutant yeast strain. The experiment in a line: Growth and fluorescence test in the presence of inhibitors, pdr5yor1snq2 triple-mutant strain. The data set is classed as cell-based, Saccharomyces cerevisiae. As to conditions: 0.05 and 0.5 ng/ml mitomycin C, 0.01 and 0.1 ng/ml TPhT, 30° C., 8 hours.
For data set [3], the system named is rad54::egfp reporter in yeast strain HLY5RG-12B2. The experiment in a line: Genotoxic signaling: egfp under rad54 promoter, green fluorescence. Particulars: depending on concentration: mitomycin C 0.05 and 0.5 ng/ml, TPhT 0.01 and 0.1 ng/ml, 8 hours, 30° C. As for the experimental part:
(§1) Cultures of Saccharomyces cerevisiae wild strain, of the pdr5yor1snq2 triple-mutant yeast strain and of the genotoxically and cytotoxically signaling strain HLY5RG-12B2 expressing Dsred and egfp were grown in complete medium YPD (2% yeast extract, 1% peptone) with 2% D-glucose, pH 5.0, at 30° C. over night with shaking.
Subsequently, a spectral excitation at 489 nm was performed for the genotoxic substance testing, and the intensity of the emission maxima at 508 nm (specific of egfp) was measured for all cell suspensions.

Data set [4] has as its system pma1-DsRed1 reporter in yeast strain HLY5RG-12B2. Put plainly: Cytotoxic signaling: DsRed1 under pma1 promoter, red fluorescence. As to conditions: depending on concentration: mitomycin C 0.05 and 0.5 ng/ml, TPhT 0.01 and 0.1 ng/ml, 8 hours, 30° C. As for the experimental part: as §1
For the cytotoxic substance testing, a spectral excitation at 558 nm was performed, and the intensity of the emission maxima at 583 nm (specific of DsRedp) was measured for all cell suspensions. In addition, a determination of the simple growth of the cells by measuring the optical density at 600 nm was performed.

Data set [5] deals with cytochrome-P450-dependent aromatase. As to conditions: marine gastropods; Bettin et al. 1995; cited from earlier work.

Take triphenyltin [TPhT]: in data set [1], the “growth rate (doubling time)” value came out at 90 min and the “specific red (583 nm) or green (508 nm) fluorescence” value was “without showing a specific red (cytotoxic potential) or green (genotoxic potential) fluorescence”. In data set [2], the “growth rate (doubling time)” value is 180 min and the “specific red (583 nm) or green (508 nm) fluorescence” value was “without showing a specific red (cytotoxic potential) or green (genotoxic potential) fluorescence”. Besides, the “green fluorescence, emission maximum 508 nm (genotoxic potential)” value in data set [3] is on record as “no increasing green fluorescence”. Also, the “red fluorescence, emission maximum 583 nm (cytotoxic potential)” value in data set [4] was “increasing specific red fluorescence”.

Consider tributyltin [TBT], for which the “effect on aromatization of androgens into estrogens” value in data set [5] is “inhibits the aromatization of androgens into estrogens”.
